Legend:
primary DRG neuron = assay: Axon growth of primary DRG neurons (immunofluorescence, Neuro J); assay type: cell-based, C57BL/6J mice; details: 24 hours
Protocol: Diabetic peripheral neuropathy involved a sensory neuron first, and a main pathological change was axonal atrophy and degeneration, or even disappearance. […] Therefore, the compounds in the examples were added with the primary DRG neuron to incubate for a certain period of time, then the axon growth of the DRG neuron was detected by immunofluorescence, and an axon length was quantified by Neuro J, so as to evaluate the promotion effect of the compound on the axon growth of the peripheral sensory neuron.
Primary antibodies of mice anti-β-tubulin III used for fluorescent staining were purchased from Sigma Company, cell culture reagents were all purchased from Gibco Company, and DRG neuronal cells were taken from C57BL/6J mice. Specific experimental steps were as follows: fresh DRG of the C57 mice was extracted to digest into a single-cell suspension and then inoculated into a culture plate for adherent culture overnight, with vinblastine as a positive drug, the to-be-detected compounds S1 to S87 ([…]) synthesized in the above examples were given to incubate for 24 hours, then an original culture medium was removed, 4% paraformaldehyde was added into each well to fix for 15 minutes after PBS washing, the mixture was permeabilized with 0.3% TritonX-100 for 5 minutes and sealed at room temperature with 4% BSA for 1 hour, a primary antibody (1:1000) was incubated at 4° C. overnight, a goat anti-mouse fluorescent secondary antibody (1:300) was incubated at room temperature in the dark for 1 hour, and a sealed slide was imaged by a fluorescence microscope (Leica). According to the image, a total axon length of a single DRG neuron was tracked by a Neuro J plug-in in Image J software, and a multiple of the total axon length relative to that of the blank control group was calculated.

[1] = test system: STZ-induced type-1 diabetes model mice; assay: 50% mechanical pain threshold (Von frey), type-1 diabetic peripheral neuropathy mice; assay type: in vivo, C57BL/6J mice; details: type-1 mice, S26 46.8 mg/kg/day intragastric, Mean ± SD, n = 6
Protocol: Type-1 diabetes mice: male 8-week-old C57BL/6J mice were purchased from Beijing Vital River Laboratory Animal Technology Co., Ltd. One week after adaptive feeding, STZ (150 mg/kg) was injected intraperitoneally, and one week later, tail vein blood collection was carried out for blood sugar detection, and the mice with random blood sugar greater than 16 mmol/L were selected. Six weeks after STZ injection, the mice were divided into a control group (non-diabetic mice), a model group (DPN mice) and a S26 administration group (46.8 mg/kg/day) respectively according to body weight and blood sugar, and administrated intragastrically for four weeks continuously. This experiment was based on a principle that claws of rodents would have a withdrawal reflex under mechanical stimulation. A Von frey tactile measuring set was purchased from Ugo Basile Company, and Von frey filaments could provide 0.008 g to 300 g of stimulating force, wherein a thickness of the filaments determined a magnitude of the stimulating force. Specific experimental method: filaments with proper thicknesses were selected to vertically stimulate a skin, and the stimulating force was adjusted by replacing the filaments, until the filaments were bent. One mouse was tested for 6 times to determine a threshold, and a 50% mechanical pain threshold of the mouse was calculated according to 50% threshold=(10^(Xf+k δ))/10000, which was detected weekly before and after administration respectively.

[2] = test system: DRG neurons of type-1 diabetes peripheral neuropathy model mice; assay: Axon growth of DRG neuron cells taken after administration, type-1 mice; assay type: in vivo, C57BL/6J mice
Protocol: Type-1 diabetes mice: male 8-week-old C57BL/6J mice were purchased from Beijing Vital River Laboratory Animal Technology Co., Ltd. One week after adaptive feeding, STZ (150 mg/kg) was injected intraperitoneally, and one week later, tail vein blood collection was carried out for blood sugar detection, and the mice with random blood sugar greater than 16 mmol/L were selected. Six weeks after STZ injection, the mice were divided into a control group (non-diabetic mice), a model group (DPN mice) and a S26 administration group (46.8 mg/kg/day) respectively according to body weight and blood sugar, and administrated intragastrically for four weeks continuously. After administration, a fresh DRG neuron of a mouse was extracted to digest into a single-cell suspension and then inoculated into a culture plate for adherent culture overnight. A β-tubulin III (Sigma) protein of the DRG neuron cells was labeled by an immunofluorescence staining method. The protein was imaged by a fluorescence microscope (Leica), and a total axon length of a single DRG neuron cell was tracked by a Neuro J plug-in in Image J software.

[3] = test system: diabetic foot ulcer rat model (STZ-induced diabetic rat); assay: Foot ulcer wound area of diabetic foot ulcer model rat; assay type: in vivo, Sprague Dawley rats; details: for Area of foot ulcer wound: DFU rats, S26 46.8 mg/kg/day intragastric, Mean ± SD, n = 6
Protocol: Diabetic foot ulcer (DFU) was the most common manifestation of diabetic foot, and was also a main cause of amputation of a diabetic patient. In this experiment, a certain area of wound was created on a foot back of the diabetic rat at one time to form a diabetic foot ulcer model, and then the compound S26 was administrated for treatment. The influence of the vinpocetine derivative S26 on the healing of the diabetic foot ulcer was evaluated by taking a photo of the wound and quantifying an area of the wound. […] Four weeks after STZ injection, an inhalation anesthesia machine was used to carry out isoflurane inhalation to induce anesthesia, and a complete round skin wound was created on a rear foot back of the diabetic rat through a disposable 5 mm skin biopsy punch and a Westcott scissor. After the establishment of the diabetic foot ulcer rat model, the rats were divided into a control group (non-diabetic rats), a model group (DFU rats) and a S26 administration group (46.8 mg/kg/day) respectively according to blood sugar and body weight, and administrated intragastrically for four weeks continuously. The foot ulcer wound of each rat was observed on day 0, day 3, day 7, day 14, day 21 and day 28 after administration, and photographed with a camera, and then the wound area was quantified by Image J software through scale conversion.

`CC[C@@]12C=C(C(=O)NCC(=O)OCCOCCOCCOCCO)n3c4c(c5ccccc53)CCN(CCC1)[C@H]42` [Compound S26] was tested, and the “Promotion of axon growth of the primary DRG neuron compared with the positive drug (in words)” value (primary DRG neuron; 10 μm) was “more outstanding effect”, the fold induction at 10 µM (primary DRG neuron; Mus musculus, multiple of total axon length of a single DRG neuron relative to blank control group) was 13.7 and the “50% mechanical pain threshold” value ([1]; week 0 of administration) was 1.51 ± 0.22^ g. For the same molecule, the “50% mechanical pain threshold” value ([1]; week 1 of administration) was 1.06 ± 0.34 g, the “50% mechanical pain threshold” value ([1]; week 2 of administration) was 0.92 ± 0.24 g and the “50% mechanical pain threshold” value ([1]; week 3 of administration) was 0.87 ± 0.15 g. The “50% mechanical pain threshold” value ([1]; week 4 of administration) was 0.85 ± 0.23 g, the Total axon length ([2]; Type-1 mice, DRG neurons extracted after four weeks of S26 46.8 mg/kg/day intragastric, Mean (SD in the cell below), n = 6) was 6374.12 pixel and the “Axon growth conditions of DRG neurons (in words, FIG. 1)” value ([2]; type-1 diabetes peripheral neuropathy model mice) was “obviously improve”. For the same molecule, the “Area of foot ulcer wound” value ([3]; day 0 of administration) was 25.02 ± 2.85 mm^2, the “Area of foot ulcer wound” value ([3]; day 3 of administration) was 22.57 ± 2.76 mm^2 and the “Area of foot ulcer wound” value ([3]; day 7 of administration) was 11.83 ± 3.73^# mm^2. The “Area of foot ulcer wound” value ([3]; day 14 of administration) was 10.50 ± 2.01^## mm^2, the “Area of foot ulcer wound” value ([3]; day 21 of administration) was 8.78 ± 1.35^## mm^2 and the “Area of foot ulcer wound” value ([3]; day 28 of administration) was 6.02 ± 1.67^# mm^2. The “Area of the foot ulcer wound (in words, FIG. 2)” value ([3]; diabetic foot rat) was “obviously reduce”.

From patent US12600724B2, “Indole alkaloid and preparation method and use thereof” (NANJING UNIVERSITY OF CHINESE MEDICINE, priority 2022, dated 2026)
